Consider one compound from patent publication US7226932B2, “Self-emulsifying drug delivery system” (priority 1994, dated 2007).

≈ marks a conversion by molar mass, not a printed value. Like-named read-outs stand apart in the source and are kept apart here.

A short description of series [1]: Solubility in water and oil. It counts as physicochemical.
Series [2] is described as follows: Bioavailability measured in animals. Type of series: in vivo.
Series [3] in a line: Oral administration to rats, plasma pharmacokinetics. Type of series: in vivo. Particulars: rat, suspension in tween 80, methylcellulose and water. Here is the method:
Rats: […] Three rats were administered with each dose vehicle. […] Plasma concentrations of the pharmaceutical were determined as previously described in the dog and the same pharmacokinetic parameters were determined.

The target of series [4] is HIV protease (Human immunodeficiency virus type 1 group M subtype B, UniProt P04585). Put plainly: IC50 and IC90 pharmaceutical plasma levels.

One may read the solubility as how much of the substance goes into solution per volume. The bioavailability is dose-corrected exposure relative to a reference, in per cent. The term IC50 denotes the concentration that inhibits the measured activity by half. A higher IC50 goes with lower potency. For orientation: IC90 means the concentration at which the effect reaches the 90% level. What is called melting point is the temperature, or range, at which the solid turns liquid.

On to `CC(C)CN(C[C@@H](O)[C@H](Cc1ccccc1)NC(=O)[C@H](CC(N)=O)NC(=O)c1ccc2ccccc2n1)C(=O)NC(C)(C)C` [Example 1, N^1-[3-[N^2-[[(1,1-dimethylethyl)amino]carbonyl]-N^2-(2-methylpropyl)amino]-2(R)-hydroxy-1(S)-(phenylmethyl)propyl]-2(S)-[N^3-(2-quinolinylcarbonyl)amino]butanediamide], for which the melting point lay within 107 to 109.8 °C. Further, in series [1], the “dose to solubility ratio” value is reported as > 75,000. Further, the solubility in series [1] (oil, oil or lipid, read-out: solubility in oil) is below 1000 µg/mL. Besides, the solubility in series [1] (water, read-out: solubility in water) is around 10 µg/mL (≈ 16.5 µM). Moreover, the bioavailability in series [2] (in vivo, normal formulation methods, read-out: bioavailability) was below 1%. For the same compound, in series [2] (measured in animals, without solubilizer), the bioavailability entry was “very low”. For the same compound, the increase of bioavailability in series [2] (utilizing a solubilizer in the dosage formulation) is reported as 25–30 fold. The compound further registered a bioavailability in series [3] of around 1%. In series [4], the IC50 was 16.5 nM and the IC90 was found to be 0.1 µg/mL (≈ 0.165 µM).
